Assay results: patent publication US20090123419A1, “TREATMENT OF UTERINE CANCER AND OVARIAN CANCER WITH A PARP INHIBITOR ALONE OR IN COMBINATION WITH ANTI-TUMOR AGENTS” (BiPar Sciences, priority 2007, published 2009)

Tests used:
normal cells = experiment: Toxic effects of BA in normal cells; format: cell-based
PARP = PARP activity in tissue samples from OVCAR-3 xenograft model; format: in vivo, SCID mice; settings: after a single dose of BA; for effect on PARP activity in xenograft tissue samples: FIG. 2
Description: The human OVCAR-3 (NIH-OVCAR-3) ovarian adenocarcinoma utilized in the study is maintained in athymic nude mice by serial engraftment. The human SW620 colon adenocarcinoma utilized in the study is maintained in nude mice by serial engraftment.
Whole blood is collected into EDTA vacutainers and human PBMCs are obtained by BD Vacutainer™ CPT™ Cell Preparation kit according to the manufacturer's instructions (BD Vacutainer™, REF 362760). Tumor samples are collected in a sterile container and placed immediately on ice. Within 30 minutes, tumor samples are snap-frozen in liquid nitrogen and stored at −80° C. until homogenized for analysis. The specimen is defrosted on ice and the wet weight is documented. The tissue is homogenized using isotonic buffer [7 mmol/L HEPES, 26 mmol/L KCl, 0.1 mmol/L dextran, 0.4 mmol/L EGTA, 0.5 mmol/L MgCl2, 45 mmol/L sucrose (pH 7.8)]. The homogenate is kept on ice throughout the process, and homogenization is done in 10-second bursts to prevent undue warming of the sample. Unless assayed on the day of homogenization, samples are refrozen to −80° C. and stored at this temperature until analyzed.
Cell preparations are defrosted rapidly at room temperature and washed twice in ice-cold PBS. […] Maximally stimulated PARP activity is measured in replicate samples of 20,000 cells in a reaction mixture containing […] NAD+ and 10 mg/mL oligonucleotide in a reaction buffer of 100 mmol/L Tris-HCl, 120 mmol/L MgCl2 (pH 7.8) in a final volume of […] as described previously (24) at 26° C. in an oscillating water bath. […] Purified PAR standards are loaded onto each membrane ([…] monomer equivalent) to generate a standard curve and allow quantification. […] Chemiluminesence detected during a 5-minute exposure is measured using a Fuji LAS3000 UV Illuminator (Raytek, Sheffield, United Kingdom) and digitized using the imaging software (Fuji LAS Image version 1.1, Raytek). The acquired image is analyzed using Aida Image Analyzer (version 3.28.001), and results are expressed in LAU/mm^2. […]

advanced solid tumors = experiment: Phase 1b study of BA in combination with chemotherapy, clinical response via RECIST; format: in vivo, human
Experimental: The protocol has been amended to evaluate BA in combination with chemotherapy in specific tumor types.
BA plus cytotoxic chemotherapy (CTX)
BA Dosing: • Twice weekly; i.v. infusion • Standard 3+3 design for BA dose escalation • Dose levels studied: 2.0, 2.8, 4.0, 5.6, 8.0, and up to 11.2 mg/kg
Clinical response via RECIST every 2 cycles
Subjects— 18 years old with a refractory, advanced solid tumor, ECOG PS of <=2, and adequate hematological, renal, and hepatic function
No restriction on number of prior chemotherapeutic regimens

[1] = Clinical safety experience with BA to date; format: in vivo, human
[2] = Preclinical studies of BA with topotecan

In the case of NC(=O)c1ccc(I)c([N+](=O)[O-])c1 [BA, 4-iodo-3-nitrobenzamide], the “toxic effects in normal cells” value (normal cells) is reported as “without exerting toxic effects in normal cells”, the “effect on PARP activity in xenograft tissue samples” value (PARP) is reported as “inhibitory effect” and the “effect on PARP activity in xenograft tissue samples” value (PARP; listed as 4-iodo-3-nitrobenzamide) is reported as “inhibition of PARP”. The “duration of inhibitory effect on PARP activity” value (PARP; hours of observation) was “at least 8 hours”, the “subjects with stable disease for 2 cycles of treatment or more” value (advanced solid tumors; BA plus cytotoxic chemotherapy) was “Approximately 80%” and the “tumor response of a patient with advanced ovarian cancer” value (advanced solid tumors; after 4 cycles of BA in combination with topotecan, FIG. 4) was “partial response”. For the same compound, the “subjects demonstrating some clinical benefit” value (advanced solid tumors; of 66 subjects, BA plus cytotoxic chemotherapy) was 53 subjects, the “liver lesion (target lesion) size after treatment” value (advanced solid tumors; one ovarian cancer patient, 4 cycles BA with topotecan, from 4.6 cm) was 1.5 cm and the “CA 27-29 biomarker after treatment” value (advanced solid tumors; one ovarian cancer patient, 4 cycles BA with topotecan, from >300) was under 200. For the same compound, the safety and tolerability [1] was “safe and well-tolerated”, the “serious adverse events or grade 3 or 4 toxicities associated with BA” value [1] was “no serious adverse events or grade 3 or 4 toxicities” and the “effect on antitumor activity of topotecan” value [2] was “potentiates the antitumor activity of topotecan”.
